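Cells were grown in 96-well plates and exposed to each compound for 48 hours at five concentrations; endpoints were interpolated linearly between bracketing concentrations, or set to the highest concentration if not reached. GI50 is the concentration that inhibits growth by half. TGI denotes the concentration required for complete inhibition of growth.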
Tests used:
Experiment in all cases: NCI tumour cell line growth inhibition, 48 h
[1] = test system: 786-0 renal
[2] = test system: A498 renal
[3] = test system: A549 NSCLC
[4] = test system: ACHN renal
[5] = test system: BT-549 breast
[6] = test system: CCRF-CEM leukemia
[7] = test system: COLO 205 colon
[8] = test system: DU-145 prostate
[9] = test system: EKVX NSCLC
[10] = test system: HCC-2998 colon
[11] = test system: HCT-116 colon
[12] = test system: HCT-15 colon
[13] = test system: HL-60(TB) leukemia
[14] = test system: HOP-62 NSCLC
[15] = test system: HOP-92 NSCLC
[16] = test system: HS 578T breast
[17] = test system: HT29 colon
[18] = test system: IGROV1 ovarian
[19] = test system: K-562 leukemia
[20] = test system: KM12 colon
[21] = test system: LOX IMVI melanoma
[22] = test system: M14 melanoma
[23] = test system: MALME-3M melanoma
[24] = test system: MCF7 breast
[25] = test system: MDA-MB-231 breast
[26] = test system: MDA-MB-435
[27] = test system: MOLT-4 leukemia
[28] = test system: NCI-H226 lung
[29] = test system: NCI-H23 lung
[30] = test system: NCI-H460 lung
[31] = test system: NCI-H522 lung
[32] = test system: NCI/ADR-RES ovarian
[33] = test system: OVCAR-3 ovarian
[34] = test system: OVCAR-4 ovarian
[35] = test system: OVCAR-5 ovarian
[36] = test system: OVCAR-8 ovarian
[37] = test system: PC-3 prostate
[38] = test system: RPMI-8226 leukemia
[39] = test system: RXF 393 renal
[40] = test system: SF-268 CNS
[41] = test system: SF-295 CNS
[42] = test system: SF-539 CNS
[43] = test system: SK-MEL-2 melanoma
[44] = test system: SK-MEL-28 melanoma
[45] = test system: SK-MEL-5 melanoma
[46] = test system: SK-OV-3 ovarian
[47] = test system: SN12C renal
[48] = test system: SNB-19 CNS
[49] = test system: SNB-75 CNS
[50] = test system: SR leukemia
[51] = test system: SW-620 colon
[52] = test system: T-47D breast
[53] = test system: TK-10 renal
[54] = test system: U251 CNS
[55] = test system: UACC-257 melanoma
[56] = test system: UACC-62 melanoma
[57] = test system: UO-31 renal

With C=C1[C@@H](C)C2[C@H](Cc3ccccc3)NC(=O)[C@]23[C@H](OC(C)=O)/C=C/[C@@](C)(O)C(=O)[C@@H](C)C/C=C/[C@H]3[C@@H]1O (stereo not given in full) the TGI [1] was > 16.7 µM, the GI50 [2] was 0.11 µM and the TGI [2] was 0.826 µM. For the same molecule, the GI50 [3] was 0.915 µM, the TGI [3] was > 16.7 µM and the GI50 [4] was 1.32 µM. For the same molecule, the TGI [4] was > 16.7 µM, the GI50 [5] was 0.528 µM and the TGI [5] was > 16.7 µM. For the same molecule, the GI50 [6] was > 11.8 µM, the TGI [6] was > 16.7 µM and the GI50 [7] was 2.32 µM. For the same molecule, the TGI [7] was > 16.7 µM, the GI50 [8] was 7.04 µM and the TGI [8] was > 16.7 µM. For the same molecule, the GI50 [9] was 0.975 µM, the TGI [9] was > 16.7 µM and the GI50 [10] was > 16.7 µM. The TGI [10] was > 16.7 µM, the GI50 [11] was 0.718 µM and the TGI [11] was > 16.7 µM. The TGI [12] was > 16.7 µM, the GI50 [13] was 5.31 µM and the TGI [13] was > 16.7 µM. For the same molecule, the GI50 [14] was 0.035 µM, the TGI [14] was > 4.4 µM and the GI50 [15] was 0.099 µM. The TGI [15] was 0.699 µM, the GI50 [16] was 0.0826 µM and the TGI [16] was > 16.7 µM. For the same molecule, the GI50 [17] was 0.0933 µM, the TGI [17] was > 16.7 µM and the GI50 [18] was 0.574 µM. The TGI [18] was > 16.7 µM, the GI50 [19] was > 16.7 µM and the TGI [19] was > 16.7 µM. The GI50 [20] was > 16.7 µM, the TGI [20] was > 16.7 µM and the GI50 [21] was 0.272 µM. For the same molecule, the TGI [21] was > 8.76 µM, the GI50 [22] was > 11.4 µM and the TGI [22] was > 16.7 µM. The GI50 [23] was > 16.7 µM, the TGI [23] was > 16.7 µM and the GI50 [24] was 0.756 µM. For the same molecule, the TGI [24] was > 16.7 µM, the GI50 [25] was 0.366 µM and the TGI [25] was > 16.7 µM. For the same molecule, the GI50 [26] was > 16.7 µM, the TGI [26] was > 16.7 µM and the TGI [27] was > 16.7 µM. For the same molecule, the GI50 [28] was 16.5 µM, the TGI [28] was > 16.7 µM and the GI50 [29] was > 16.7 µM. For the same molecule, the TGI [29] was > 16.7 µM, the GI50 [30] was 0.571 µM and the TGI [30] was > 16.7 µM. For the same molecule, the TGI [31] was > 16.7 µM, the GI50 [32] was > 16.7 µM and the TGI [32] was > 16.7 µM. For the same molecule, the GI50 [33] was > 16.7 µM, the TGI [33] was > 16.7 µM and the GI50 [34] was 0.824 µM. For the same molecule, the TGI [34] was > 16.7 µM, the GI50 [35] was > 9.92 µM and the TGI [35] was > 16.7 µM. The GI50 [36] was > 16.7 µM, the TGI [36] was > 16.7 µM and the GI50 [37] was > 16.7 µM. The TGI [37] was > 16.7 µM, the GI50 [38] was 3.84 µM and the TGI [38] was > 16.7 µM. It also gave a GI50 [39] of 0.105 µM, a TGI [39] of 4.19 µM and a GI50 [40] of 0.228 µM. The TGI [40] was > 16.7 µM, the GI50 [41] was 1.16 µM and the TGI [41] was > 16.7 µM. The GI50 [42] was 0.322 µM, the TGI [42] was > 16.7 µM and the GI50 [43] was > 16.7 µM. For the same molecule, the TGI [43] was > 16.7 µM, the GI50 [44] was > 16.7 µM and the TGI [44] was > 16.7 µM. For the same molecule, the GI50 [45] was 0.955 µM, the TGI [45] was > 11.8 µM and the GI50 [46] was 0.0997 µM. For the same molecule, the TGI [46] was > 15.2 µM, the GI50 [47] was > 16.7 µM and the TGI [47] was > 16.7 µM. For the same molecule, the GI50 [48] was 0.265 µM, the TGI [48] was > 16.7 µM and the GI50 [49] was 0.0126 µM. For the same molecule, the TGI [49] was 0.12 µM, the GI50 [50] was > 15.7 µM and the TGI [50] was > 16.7 µM. The GI50 [51] was > 16.7 µM, the TGI [51] was > 16.7 µM and the GI50 [52] was > 16.7 µM. The TGI [52] was > 16.7 µM, the GI50 [53] was 0.714 µM and the TGI [53] was > 16.7 µM. The GI50 [54] was 0.105 µM, the TGI [54] was > 16.7 µM and the GI50 [55] was > 16.7 µM. The TGI [55] was > 16.7 µM, the GI50 [56] was > 16.7 µM and the TGI [56] was > 16.7 µM. For the same molecule, the GI50 [57] was 0.251 µM and the TGI [57] was 3.58 µM.

Source: PubChem BioAssay (NCI)
